Assay results taken from patent US20230416248A1, “COMPOUNDS AND USES THEREOF” (Foghorn Therapeutics Inc., priority 2020, published 2023).

Columns and labels:
[1] = target: T1, BRG-1 (Homo sapiens, UniProt P51532); experiment: ATPase catalytic activity of BRG-1, ADP-Glo in vitro biochemical assay; details: ATPase catalytic activity, ADP-Glo; 30 nM BRG-1, 400 μM ATP; read-out: BRG1 IC50
T1 construct: made in house; host or cells: High Five insect cells
Summary of the method: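 Signal reflects ADP produced by the enzyme, quantified as luminescence after unused ATP is cleared and ADP is reconverted to ATP for the luciferase reaction; both steps run at room temperature, 40 and 60 min respectively.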

[2] = target: T2, BRM (Homo sapiens, UniProt P51531); experiment: ATPase catalytic activity of BRM, ADP-Glo in vitro biochemical assay; details: for IC50: ATPase catalytic activity, ADP-Glo, 30 nM BRM, 400 μM ATP; for Ratio*: ratio of BRG1 IC50 to BRM IC50
T2 construct: made in house; host or cells: High Five insect cells
T2 sequence (P51531 whole entry): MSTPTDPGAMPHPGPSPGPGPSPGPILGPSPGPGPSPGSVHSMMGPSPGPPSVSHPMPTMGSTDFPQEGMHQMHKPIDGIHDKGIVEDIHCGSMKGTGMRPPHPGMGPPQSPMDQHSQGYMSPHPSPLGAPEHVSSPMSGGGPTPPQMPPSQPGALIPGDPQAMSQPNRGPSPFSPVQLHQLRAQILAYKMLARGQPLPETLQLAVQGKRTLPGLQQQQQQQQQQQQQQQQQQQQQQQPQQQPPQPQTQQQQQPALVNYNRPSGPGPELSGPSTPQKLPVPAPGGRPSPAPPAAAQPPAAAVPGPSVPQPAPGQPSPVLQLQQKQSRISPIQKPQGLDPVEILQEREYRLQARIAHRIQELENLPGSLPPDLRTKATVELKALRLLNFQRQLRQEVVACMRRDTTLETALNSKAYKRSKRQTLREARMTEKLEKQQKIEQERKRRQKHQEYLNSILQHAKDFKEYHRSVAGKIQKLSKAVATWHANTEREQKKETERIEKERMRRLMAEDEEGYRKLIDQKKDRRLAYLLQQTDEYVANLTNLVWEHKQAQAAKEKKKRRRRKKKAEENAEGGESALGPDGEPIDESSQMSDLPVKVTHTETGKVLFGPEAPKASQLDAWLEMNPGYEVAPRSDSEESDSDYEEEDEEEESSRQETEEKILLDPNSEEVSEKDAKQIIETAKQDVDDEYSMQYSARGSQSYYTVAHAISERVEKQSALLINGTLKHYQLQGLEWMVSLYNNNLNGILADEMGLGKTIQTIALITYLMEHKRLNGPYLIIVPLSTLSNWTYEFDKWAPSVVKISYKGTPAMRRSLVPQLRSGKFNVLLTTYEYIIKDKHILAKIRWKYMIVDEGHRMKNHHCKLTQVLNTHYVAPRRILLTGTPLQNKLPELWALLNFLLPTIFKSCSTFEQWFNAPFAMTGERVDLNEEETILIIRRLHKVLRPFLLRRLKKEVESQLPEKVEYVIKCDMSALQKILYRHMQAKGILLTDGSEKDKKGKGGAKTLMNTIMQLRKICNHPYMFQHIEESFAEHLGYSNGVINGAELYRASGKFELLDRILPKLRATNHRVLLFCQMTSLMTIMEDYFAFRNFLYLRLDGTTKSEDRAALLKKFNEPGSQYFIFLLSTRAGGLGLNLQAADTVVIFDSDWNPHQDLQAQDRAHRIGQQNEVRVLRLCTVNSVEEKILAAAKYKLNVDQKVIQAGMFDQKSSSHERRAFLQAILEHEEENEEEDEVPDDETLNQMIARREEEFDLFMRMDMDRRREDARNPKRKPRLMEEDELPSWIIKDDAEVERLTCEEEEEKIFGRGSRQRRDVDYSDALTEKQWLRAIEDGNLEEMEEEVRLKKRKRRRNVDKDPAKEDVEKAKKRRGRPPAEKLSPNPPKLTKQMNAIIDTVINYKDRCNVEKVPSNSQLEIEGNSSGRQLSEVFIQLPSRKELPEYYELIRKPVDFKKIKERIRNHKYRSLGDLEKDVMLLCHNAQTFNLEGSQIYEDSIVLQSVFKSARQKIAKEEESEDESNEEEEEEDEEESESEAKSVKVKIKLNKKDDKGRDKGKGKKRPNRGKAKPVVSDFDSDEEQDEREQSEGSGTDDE
Summary of the method: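 Recombinant BRM (30 nM) hydrolysed 400 μM ATP with 20 nM salmon sperm DNA in pH 8 Tris buffer containing 20 mM MgCl2, 50 mM NaCl, 0.1% Tween-20 and 1 mM DTT, 1 h at room temperature. ADP formed was quantified by ADP-Glo luminescence.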

T1 sequence (P51532 whole entry): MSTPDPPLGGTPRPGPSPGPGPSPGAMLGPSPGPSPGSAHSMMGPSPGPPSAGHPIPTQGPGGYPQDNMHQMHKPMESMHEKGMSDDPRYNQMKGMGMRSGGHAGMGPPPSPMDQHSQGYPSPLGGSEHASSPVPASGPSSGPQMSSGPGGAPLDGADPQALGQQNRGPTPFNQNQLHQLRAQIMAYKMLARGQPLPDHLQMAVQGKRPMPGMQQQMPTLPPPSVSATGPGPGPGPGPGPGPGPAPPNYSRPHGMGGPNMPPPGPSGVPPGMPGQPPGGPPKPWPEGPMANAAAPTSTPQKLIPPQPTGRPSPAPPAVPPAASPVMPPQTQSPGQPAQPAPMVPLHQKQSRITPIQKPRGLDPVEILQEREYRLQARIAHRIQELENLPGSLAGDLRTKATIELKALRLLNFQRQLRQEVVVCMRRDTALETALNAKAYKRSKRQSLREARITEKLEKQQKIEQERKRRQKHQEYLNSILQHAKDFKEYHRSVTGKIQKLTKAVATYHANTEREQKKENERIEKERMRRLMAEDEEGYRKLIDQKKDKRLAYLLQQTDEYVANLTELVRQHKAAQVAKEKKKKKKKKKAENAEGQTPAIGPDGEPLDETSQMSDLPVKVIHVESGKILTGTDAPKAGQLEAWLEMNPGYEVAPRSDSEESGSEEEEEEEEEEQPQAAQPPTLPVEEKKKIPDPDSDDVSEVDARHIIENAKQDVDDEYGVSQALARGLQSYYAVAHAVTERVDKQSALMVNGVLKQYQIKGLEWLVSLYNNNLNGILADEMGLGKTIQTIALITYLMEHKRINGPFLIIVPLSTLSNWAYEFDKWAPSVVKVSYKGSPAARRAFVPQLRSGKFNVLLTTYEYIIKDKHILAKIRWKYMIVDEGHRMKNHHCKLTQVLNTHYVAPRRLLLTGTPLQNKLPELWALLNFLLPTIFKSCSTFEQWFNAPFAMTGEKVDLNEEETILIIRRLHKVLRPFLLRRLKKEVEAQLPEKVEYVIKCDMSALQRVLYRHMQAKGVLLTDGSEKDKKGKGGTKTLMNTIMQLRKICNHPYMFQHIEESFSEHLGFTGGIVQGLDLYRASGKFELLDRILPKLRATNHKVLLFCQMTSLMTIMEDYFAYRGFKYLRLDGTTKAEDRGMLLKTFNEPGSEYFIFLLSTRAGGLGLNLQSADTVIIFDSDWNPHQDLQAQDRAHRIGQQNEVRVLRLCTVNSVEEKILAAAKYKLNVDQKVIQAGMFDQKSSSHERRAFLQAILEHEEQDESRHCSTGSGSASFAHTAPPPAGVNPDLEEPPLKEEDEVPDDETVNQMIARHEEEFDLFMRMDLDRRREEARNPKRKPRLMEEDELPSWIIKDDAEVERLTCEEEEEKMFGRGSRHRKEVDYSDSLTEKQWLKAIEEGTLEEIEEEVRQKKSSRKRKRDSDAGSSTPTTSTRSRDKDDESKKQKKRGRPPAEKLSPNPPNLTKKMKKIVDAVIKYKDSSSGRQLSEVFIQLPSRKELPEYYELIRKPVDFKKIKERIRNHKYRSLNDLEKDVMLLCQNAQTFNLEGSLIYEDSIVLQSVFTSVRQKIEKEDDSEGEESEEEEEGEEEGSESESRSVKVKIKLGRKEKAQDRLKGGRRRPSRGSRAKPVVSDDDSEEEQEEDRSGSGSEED

Structure (SMILES) | IC50 [1] | IC50 [2] | Ratio* [2]
C[C@@H]1CN(c2cccc(-c3ccc4cnc(CNC(=O)c5cnc6c(c5)S(=O)(=O)[C@@H](C)CCC6)cc4n3)n2)C[C@H](C)O1 [Compound 509] | 26.9 nM | 6.4 nM | 4.21
COCCc1cnc2c(c1)CCCN2c1ccc2cnc(CNC(=O)c3ccc4c(c3)S(=O)(=O)CCOC4)cc2n1 [Compound 510] | 142 nM | 13.9 nM | 10.20
CN1C(=O)CN(c2ccc3cnc(CNC(=O)c4ccc5c(c4)S(=O)(=O)CCOC5)cc3n2)c2ccccc21 [Compound 511] | 835 nM | 329 nM | 2.54
CN1CCN(c2ccc3cnc(CNC(=O)c4ccc5c(c4)S(=O)(=O)CCOC5)cc3n2)c2ccccc21 [Compound 512] | 217 nM | 28.7 nM | 7.58
O=C(NCc1cc2nc(N3CCCc4ccc(Cl)nc43)ccc2cn1)c1ccc2c(c1)S(=O)(=O)CCOC2 [Compound 513] | 164 nM | 16.9 nM | 9.70
Cc1cnc2c(c1)CCCN2c1ccc2cnc(CNC(=O)c3ccc4c(c3)S(=O)(=O)CCCO4)cc2n1 [Compound 514] | 465 nM | 58.9 nM | 7.89
C[C@@H]1CN(c2cccc(-c3ccc4cnc(CNC(=O)c5cnc6c(c5)S(=O)(=O)[C@H](C)CCC6)cc4n3)n2)C[C@H](C)O1 [Compound 515] | 2600 nM | 231 nM | 11.23
C[C@@H]1CN(c2cccc(-c3ccc4cnc(CNC(=O)c5cc(F)c6c(c5)S(=O)(=O)CCO[C@@H]6C)cc4n3)n2)C[C@H](C)O1 [Compound 516] | 85 nM | 12.2 nM | 6.98
COc1nc(-c2ccc3cnc(CNC(=O)c4ccc5c(c4)S(=O)(=O)[C@@H](C)COC5)cc3n2)ccc1C(F)F [Compound 519] | 144 nM | 13.3 nM | 10.89
O=C(NCc1cc2nc(N3CCOc4cc(C(F)F)ccc43)ccc2cn1)c1ccc2c(c1)S(=O)(=O)CCOC2 [Compound 520] | 263 nM | 21.4 nM | 12.29
O=C(NCc1cc2nc(N3CCCc4c(C(F)F)ccnc43)ccc2cn1)c1ccc2c(c1)S(=O)(=O)CCOC2 [Compound 521] | 424 nM | 59.7 nM | 7.10
C[C@@H]1CN(c2cccc(-c3ccc4cnc(CNC(=O)c5cc(F)c6c(c5)S(=O)(=O)CCO[C@H]6C)cc4n3)n2)C[C@H](C)O1 [Compound 522] | 62.1 nM | 13.8 nM | 4.48
CC1COCc2ccc(C(=O)NCc3cc4nc(N5CCOc6cccnc65)ccc4cn3)cc2S1(=O)=O (stereo not drawn) [Compound 523] | 181 nM | 11.6 nM | 15.53
C[C@H]1CCOc2c(F)cc(C(=O)NCc3cc4nc(N5CCOc6cccnc65)ccc4cn3)cc2S1(=O)=O [Compound 524] | 171 nM | 14.6 nM | 11.68
O=C(NCc1cc2nc(N3CCCc4ccc(C(F)(F)F)cc43)ccc2cn1)c1ccc2c(c1)S(=O)(=O)CCOC2 [Compound 525] | 373 nM | 25.1 nM | 14.85
O=C(NCc1cc2nc(N3CCCc4c(F)ccnc43)ccc2cn1)c1ccc2c(c1)S(=O)(=O)CCOC2 [Compound 526] | 250 nM | 22.1 nM | 11.34
N#Cc1ccc2c(c1)CCCN2c1ccc2cnc(CNC(=O)c3ccc4c(c3)S(=O)(=O)CCOC4)cc2n1 [Compound 527] | 177 nM | 20.9 nM | 8.47
CC1CCc2ccc(-c3ccc4cnc(CNC(=O)c5ccc6c(c5)S(=O)(=O)CCOC6)cc4n3)nc2O1 (stereo not drawn) [Compound 529] | 671 nM | 173 nM | 3.88
COc1nc(-c2ccc3cnc(CNC(=O)c4cc(F)c5c(c4)S(=O)(=O)[C@@H](C)COC5)cc3n2)ccc1C(F)F [Compound 530] | 218 nM | 19.5 nM | 11.19
